Structures are written as SMILES. Where two headings read alike, the source gives them in different places.

We go through 1 compound from patent US10806794B2, “Protease inhibitors having enhanced features” (priority 2008, dated 2020).

The target in series [1] is recombinant HIV-1 protease (Human immunodeficiency virus type 1 group M subtype B (isolate HXB2) (HIV-1), UniProt P04585). Description: Enzyme inhibition of purified HIV-1 protease (SensoLyte 520 HIV-Protease Assay Kit). The format is biochemical. The note with it: read-out: IC50 ± SD. The essentials:
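PEG-PI conjugates and parent PIs were tested against recombinant HIV-1 protease. Activity was followed as fluorescence from cleavage of a quenched substrate carrying the p17/p24 Pr^gag cleavage site.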

For another series, the target named is CYP3A4 (Homo sapiens (Human), UniProt P08684). Nature of the series: CYP450 inhibition in human liver microsomes: CYP3A4.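 Also: incubation at 37 °C started by adding 1 mM NADPH, with formation of the probe metabolite measured via LC-MS/MS or fluorescent detection.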
Series [2] deals with monocyte-derived dendritic cells. Description: Cytotoxicity in monocyte-derived dendritic cells (XTT). It counts as cell-based, human. The source says: Cell viability is directly proportional to the amount of reduced XTT product formed.
In a further series the test system is monkey plasma proteins. Description: Plasma protein binding by equilibrium dialysis, monkey plasma. The format is in vitro ADME. The note with it: fraction unbound. The protocol: (§1) In assays to estimate binding of test compounds to plasma proteins, test compound solutions (5 μM) are prepared in buffer and species-specific plasma (final DMSO concentration 0.5%). The plasma-containing solution is added to one side of the membrane of an equilibrium dialysis system, and the plasma-free is added to the other side. Dialysis was allowed to reach equilibrium by incubation for two hours at 37° C. The concentration of compound on both sides of the membrane was measured using LC-MS/MS.

In the next series the test system is mouse plasma proteins. Nature of the series: Plasma protein binding by equilibrium dialysis, mouse plasma. The format is in vitro ADME. The note with it: fraction unbound. The protocol: as §1
The subject of another series is human hepatocytes. Nature of the series: Metabolic stability in cryopreserved human hepatocytes. The note with it: human hepatocytes, 0.1 uM, up to four hours. In short, it runs like this:
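Test compounds at 0.1 μM or 3 μM incubated with cryopreserved human hepatocytes at 0.5×10^6 viable cells/mL. Sampling up to four hours (0.1 μM) or one or two hours (3 μM), methanol quench, then remaining parent measured by cassette LC-MS/MS.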

A short description of the next series: in vitro. The format is in vitro ADME. The note with it: monkey, microsomes. The source says: Metabolic stability of test compounds was studied in monkey liver microsomes.
A further series has as its system HIV-1Ba-L. Nature of the series: Anti-HIV-1 activity in monocyte-derived dendritic cells (reverse transcriptase activity). It counts as cell-based. The note with it: dendritic cells. The protocol: Freshly separated human PBMCs from a single donor were suspended in DPBS at 4×10^6 cells/mL and incubated in a 75 cm^2 cell culture flask for 90 minutes at 37° C., 5% CO2. Non-adherent cells were removed by washing with DPBS. Differentiation to dendritic cells was induced by 7 day incubation in RPMI 1640 medium supplemented with 10% fetal bovine serum, 2 mmol/L L-glutamine, 25 mM HEPES, 100 Units/mL penicllin, 10 μg/mL streptomycin, 50 ng/mL recombinant human granulocyte-macrophage-colony stimulating factor (GM-CSF), and 50 ng/mL recombinant human Interleukin (IL)-4 at 37° C., 5% CO2. The cells were further incubated for two days in the same cytokine cocktail supplemented with 10 ng/mL lipopolysaccharide (LPS). The monocyte-derived dendritic cells were then suspended at 10×10^6 cells/mL in complete medium (RPMI 1640 medium supplemented with 10% fetal bovine serum, 2 mmol/L L-glutamine, 25 mM HEPES, 100 Units/mL penicllin, 10 μg/mL streptomycin) and infected for 2 h at 37 C, 5% CO2 with HIV-1Ba-L at MOI=50-150 TCID50. […] Compound diluted in complete medium was added to cells. After seven days in culture, HIV-1 replication was quantified by measuring HIV-1 reverse transcriptase activity in cell-free supernatants using a standard radioactive tritiated thymidine triphosphate (TTP) polymerization incorporation assay. For each reaction, 1 μL of TTP (1 Ci/mL) was combined with 4 μL of dH2O, 2.5 μL of poly rA and oligo dT (0.5 mg/mL and 1.7 Units/mL, respectively), and 2.5 μL reaction buffer (125 μL 1 mol/L EGTA, 125 μL dH2O, 125 μL 20% Triton X-100, 50 μL 1 mol/L Tris, pH 7.4, 50 μL 1 mol/L DTT, 40 μL 1 mol/L MgCl2), then 10 μL of the resulting mixture was combined with 15 µL of virus-containing supernatant in a round-bottom microtiter plate and the plate incubated at 37° C. in a humidified incubator for 90 minutes. Following incubation, 10 μL of the reaction volume was spotted onto a DEAD filter mat, then washed 5×5 min with 5% sodium phosphate buffer, 2×1 minute in distilled water, 2×1 minute in 70% ethanol, then air dried. The filter mat was incubated with Opti-Fluor O scintillation fluid, and radioactivity quantified using a Wallac 1450 Microbeta Trilux liquid scintillation counter.

A further series has as its system Caco-2 cells. Description: Bi-directional permeability in Caco-2 monolayers. The protocol: Absorption properties of various compounds were measured using bi-directional permeability assays in Caco-2 cells. […] The efflux ratio is calculated as the ratio of the Papp(B→A)/Papp(A→B).

CYP3A4, sequence (P08684 whole entry): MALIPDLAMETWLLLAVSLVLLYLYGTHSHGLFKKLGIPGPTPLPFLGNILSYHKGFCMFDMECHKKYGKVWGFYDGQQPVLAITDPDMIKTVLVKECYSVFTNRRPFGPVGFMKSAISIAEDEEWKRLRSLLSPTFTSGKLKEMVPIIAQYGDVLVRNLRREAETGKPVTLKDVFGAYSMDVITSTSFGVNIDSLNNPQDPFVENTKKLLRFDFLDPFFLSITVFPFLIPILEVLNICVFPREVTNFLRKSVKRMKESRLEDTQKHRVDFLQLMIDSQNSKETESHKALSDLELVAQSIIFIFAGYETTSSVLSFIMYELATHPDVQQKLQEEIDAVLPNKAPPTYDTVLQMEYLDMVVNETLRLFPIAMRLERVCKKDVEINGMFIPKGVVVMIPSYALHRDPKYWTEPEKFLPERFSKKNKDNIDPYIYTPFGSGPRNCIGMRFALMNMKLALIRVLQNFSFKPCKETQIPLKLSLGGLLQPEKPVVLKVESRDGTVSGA

`COCCOCCOCCOCCOCCOCCOC(=O)NC(C(=O)NC(Cc1ccccc1)C(O)CN(Cc1ccc(-c2ccccn2)cc1)NC(=O)C(NC(=O)OC)C(C)(C)C)C(C)(C)C` (stereo not shown) [mono-mPEG6-Atazanavir]: the IC50 was 1.31 nM in [1]; 16700 nM on CYP3A4 (read-out: CYP3A4 IC50 Midazolam, probe substrate midazolam); more than 25000 nM on CYP3A4 (read-out: CYP3A4 IC50 Testosterone, probe substrate testosterone). This compound also came in with a TC50 in series [2] of more than 1000 nM. In addition, the “Monkey Plasma Protein Binding Fu ± SD” value in the series with monkey plasma proteins was 0.598 ± 0.00839. In addition, the “Mouse Plasma Protein Binding Fu ± SD” value with mouse plasma proteins is given as 0.159 ± 0.0167. The “CLint ± SEM” value in the series with human hepatocytes came out at 0.778 ± 0.000211 μL/min/10^6 cells. The t1/2 in the series with human hepatocytes is 29.68 h. Moreover, the Clint in “in vitro” turned out to be 238 μL/min/mg protein. The t½ in the series “in vitro” came to 1.73 h. The EC50 in the series with HIV-1Ba-L (first determination, read-out: EC50 First) came to 0.16 nM; with HIV-1Ba-L (mean of three, read-out: Mean EC50), 0.2 nM; in the series with HIV-1Ba-L (second determination, read-out: EC50 Second) it was 0.21 nM; in the series with HIV-1Ba-L (third determination, read-out: EC50 Third), 0.23 nM. Also, the “Efflux ratio (B→A/A→B)” value in the series on Caco-2 cells (Caco-2 monolayers) came to 68. The “A→B, ×10^−6” value in the series on Caco-2 cells (human, Caco-2) is 0.11 cm/s.
